Reference: patent publication US9242937B2, “Pharmaceutically active disubstituted pyridine derivatives” (Bayer Intellectual Property GmbH, priority 2011, dated 2016)

Assays:
Type in all cases: biochemical
CDK1/CyclinB1 = target: T1, CDK1/CyclinB1 (Homo sapiens, UniProt P06493); assay: Lance Ultra KinaSelect Assay, CDK1; details: ULight MBP substrate, ATP 20 μM; read-out: CDK1 LANCE assay (activity range), IC50
T1 construct: purchased Carna
Protocol: (§1) This protocol describes how the Lance Ultra KinaSelect Assay was performed to determine half maximal inhibitory concentration (IC50) of compounds of general formula (I) and CDK/Cyclin complexes. The principle behind this enzymatic assay is based upon the phosphorylation of the ULight-Peptide Substrat. It is detected by using a specific EU-labeled anti-phospho peptide antibody. The binding of the Eu-labeled anti-phospho peptide antibody to the phosphorylated ULight labeled peptide gives rise to a FRET-signal. Binding of an inhibitor to the kinase prevents phosphorylation of the ULight-MBP Substrat, resulting in a loss of FRET.
(§2) The compounds of general formula (I) summarized in Table 5 were diluted from a 10 mM DMSO stock solution 1:10 in a total volume of 15 μL DMSO. […] Positive and negative controls were calculated from at least 8 different sample wells. […] Before reading, 10 μL the detection buffer (Lance Detection Buffer 1×; EDTA: […]; Eu-Anti-P-MBP: see Table 3) was added. The FRET signal was measured at 340 nm excitation, 665 nm and 615 nm emission (for the kinase tracer and LanthaScreen Eu-AB, respectively) with an Envision spectrophotometer (Perkin Elmer, Waltham, Mass., USA) with 50 μs delay and 300 μs integration time. IC50 values were determined from the sigmoidal dose response curves with the software Quattro Workflow (Quattro GmbH, Munich, Germany).

CDK4/CyclinD1 = target: T2, CDK4/CyclinD1 (Homo sapiens, UniProt P11802); assay: Lance Ultra KinaSelect Assay, CDK4; details: ULight MBP substrate, ATP 90 μM; read-out: CDK4 LANCE assay (activity range), IC50
T2 construct: purchased Invitrogen
T2 sequence (P11802 whole entry): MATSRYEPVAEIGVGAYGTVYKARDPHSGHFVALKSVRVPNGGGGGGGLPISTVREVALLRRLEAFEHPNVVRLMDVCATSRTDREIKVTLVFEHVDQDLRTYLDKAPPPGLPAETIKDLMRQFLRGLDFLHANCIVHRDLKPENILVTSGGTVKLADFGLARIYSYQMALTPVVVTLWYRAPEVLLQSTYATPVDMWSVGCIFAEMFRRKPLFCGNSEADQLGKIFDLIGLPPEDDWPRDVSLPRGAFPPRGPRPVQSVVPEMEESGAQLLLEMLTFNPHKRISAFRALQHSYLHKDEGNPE
T2 sequence (P24385 whole entry partner): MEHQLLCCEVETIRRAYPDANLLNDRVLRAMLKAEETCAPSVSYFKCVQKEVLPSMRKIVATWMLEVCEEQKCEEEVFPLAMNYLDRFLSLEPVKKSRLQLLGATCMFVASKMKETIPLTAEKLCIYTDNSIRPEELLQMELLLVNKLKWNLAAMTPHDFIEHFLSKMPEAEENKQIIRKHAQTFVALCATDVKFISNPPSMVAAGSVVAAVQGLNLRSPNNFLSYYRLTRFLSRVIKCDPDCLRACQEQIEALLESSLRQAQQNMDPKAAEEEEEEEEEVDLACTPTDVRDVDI
Protocol: as §1, §2

CDK6/CyclinD3 = target: T3, CDK6/CyclinD3 (Homo sapiens, UniProt Q00534); assay: Lance Ultra KinaSelect Assay, CDK6; details: ULight MBP substrate, ATP 55 μM; read-out: CDK6 LANCE assay (activity range), IC50
T3 construct: purchased Carna
T3 sequence (Q00534 whole entry): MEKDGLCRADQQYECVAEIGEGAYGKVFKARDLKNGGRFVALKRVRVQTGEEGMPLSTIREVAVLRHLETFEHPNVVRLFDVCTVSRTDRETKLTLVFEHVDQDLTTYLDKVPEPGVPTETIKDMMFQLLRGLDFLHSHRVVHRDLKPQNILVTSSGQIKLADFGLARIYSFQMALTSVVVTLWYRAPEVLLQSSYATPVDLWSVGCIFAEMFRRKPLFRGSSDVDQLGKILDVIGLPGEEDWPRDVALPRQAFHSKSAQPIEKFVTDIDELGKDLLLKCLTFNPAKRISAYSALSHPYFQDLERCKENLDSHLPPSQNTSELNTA
T3 sequence (P30281 whole entry partner): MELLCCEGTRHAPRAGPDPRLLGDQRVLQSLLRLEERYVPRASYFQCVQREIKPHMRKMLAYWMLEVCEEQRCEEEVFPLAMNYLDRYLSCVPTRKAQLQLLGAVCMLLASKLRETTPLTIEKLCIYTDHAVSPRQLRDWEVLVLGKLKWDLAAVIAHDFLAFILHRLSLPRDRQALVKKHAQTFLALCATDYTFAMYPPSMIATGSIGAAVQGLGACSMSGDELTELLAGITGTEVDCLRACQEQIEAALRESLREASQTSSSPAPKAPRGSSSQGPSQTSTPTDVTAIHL
Protocol: as §1, §2

T1 sequence (P06493 whole entry): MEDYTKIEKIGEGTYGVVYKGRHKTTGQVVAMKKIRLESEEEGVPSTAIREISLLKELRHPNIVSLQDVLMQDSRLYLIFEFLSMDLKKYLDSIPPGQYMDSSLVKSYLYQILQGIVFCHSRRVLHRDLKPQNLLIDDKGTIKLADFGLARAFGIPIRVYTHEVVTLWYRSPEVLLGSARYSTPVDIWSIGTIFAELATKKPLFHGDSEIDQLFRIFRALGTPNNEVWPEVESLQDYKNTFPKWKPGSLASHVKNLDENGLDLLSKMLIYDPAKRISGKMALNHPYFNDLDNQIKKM
T1 sequence (P14635 whole entry partner): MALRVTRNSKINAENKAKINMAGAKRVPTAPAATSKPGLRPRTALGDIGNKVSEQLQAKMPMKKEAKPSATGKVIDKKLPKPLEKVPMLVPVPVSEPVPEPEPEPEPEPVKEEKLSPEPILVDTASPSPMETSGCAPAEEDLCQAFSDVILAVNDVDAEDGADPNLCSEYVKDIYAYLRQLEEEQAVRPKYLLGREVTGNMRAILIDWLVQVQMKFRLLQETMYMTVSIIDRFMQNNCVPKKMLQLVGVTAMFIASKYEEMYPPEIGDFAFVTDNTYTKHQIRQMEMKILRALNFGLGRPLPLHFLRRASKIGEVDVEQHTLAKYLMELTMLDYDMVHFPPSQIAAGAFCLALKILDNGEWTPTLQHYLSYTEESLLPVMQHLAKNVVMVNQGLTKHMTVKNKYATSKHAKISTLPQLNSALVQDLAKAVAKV

Row | SMILES | IC50 (CDK1/CyclinB1) [µM] | IC50 (CDK4/CyclinD1) [µM] | IC50 (CDK6/CyclinD3) [µM]
1 | COc1ccccc1-c1ccnc(Nc2cccc(S(N)(=O)=O)c2)c1 [Compound D1, 3-[(4-(2-Methoxyphenyl)pyridin-2-yl)amino]benzenesulfonamide] | 1 to 10 | > 10 | > 10
2 | COc1cc(F)ccc1-c1ccnc(Nc2cccc(CS(N)(=O)=O)c2)c1 [Compound G1, [3-((4-(4-Fluoro-2-methoxyphenyl)pyridin-2-yl)amino)phenyl]-methanesulfonamide] | 1 to 10 | 1 to 10 | > 10
